Experimental data as given in patent US8124605B2, “Compositions and methods for modulating a kinase cascade” (Kinex Pharmaceuticals, LLC, priority 2007, dated 2012).

Experiments:
Format in all cases: cell-based
SYF/c-Src527F cell line = experiment: Cell proliferation assay (MTT assay), GI50; settings: Mus musculus, 72 h, 3 days incubation
Protocol: (§1) The GI50s for several of the compounds of the invention are assayed as described herein.
(§2) Cell line and culture media—the human colon tumor cell line HT-29 was obtained from Dr. Irwin Gelman (Roswell Park Cancer Institute, Buffalo, N.Y.) and maintained in McCoy's 5A medium supplemented with 2% fetal bovine serum and penicillin-streptomycin. SYF/c-Src527F cell line was also obtained from Dr. Irwin Gelman and maintained in Dulbecco's modified Eagle's medium (DMEM) supplemented with 2% bovine serum and penicillin-streptomycin. Both cell lines were incubated in an atmosphere containing 5% CO2 at 37° C.
(§3) Cell proliferation assay (MTT assay)-HT-29 (7,000 cells) and SYF/c-Src527F (4,000 cells) cells were plated in 120 μl of culture medium per well of 96-well plate. Cells were incubated overnight before drug treatment. Test compounds were diluted in culture medium in a separate 96-well plate to yield 10× concentrations of test dose (50 nM, 500 nM, 5 μM, 50 μM, and 500 μM). 13.3 μl of the 10× compound was added to each well of cells to achieve the final test concentrations (5 nM, 50 nM, 500 nM, 5 μM and 50 μM). After 3 days incubation, 10 μl of MTT (Thiazolyl Blue Tetrazolium Bromide, 5 mg/ml in PBS) was added to each well and incubate for 3 hours at 37° C. After removal of culture medium, 100 μl of isopropanol containing 40 mM HCl was added to each well and incubate for 10 minutes on a shaker to dissolve the MTT formazan. Optical density (OD) at 570 nm was then measured using microplate reader and cell growth inhibition (percentage of growth) by each concentration of drug was calculated as: % growth=100×[(T−T0)/(C−T0)] (T: OD of the test well exposure to test drug; C: OD of the control well without drug treatment; T0: OD at time zero). Growth inhibition curves and GI50 were determined using GraphPad Prism 5 statistical software.

[1] = system: human colon tumor cell line HT-29; experiment: Cell proliferation assay (MTT assay), GI50; settings: HT-29, 72 h, 3 days incubation, read-out: GI50 HT29
Protocol: as §1, §2, §3

JAK3 = target: T1, JAK3 (Homo sapiens, UniProt P52333); experiment: JAK phosphorylation/activation by flow cytometry, pSTAT5 staining in IL-4 stimulated U-937 cells; settings: drug 30 min, then IL-4
T1 construct: U-937 cells, histiocytic lymphoma cell line; endogenous in cells; host or cells: U-937 (ATCC CRL-1593.2)
T1 sequence (P52333 1-1124): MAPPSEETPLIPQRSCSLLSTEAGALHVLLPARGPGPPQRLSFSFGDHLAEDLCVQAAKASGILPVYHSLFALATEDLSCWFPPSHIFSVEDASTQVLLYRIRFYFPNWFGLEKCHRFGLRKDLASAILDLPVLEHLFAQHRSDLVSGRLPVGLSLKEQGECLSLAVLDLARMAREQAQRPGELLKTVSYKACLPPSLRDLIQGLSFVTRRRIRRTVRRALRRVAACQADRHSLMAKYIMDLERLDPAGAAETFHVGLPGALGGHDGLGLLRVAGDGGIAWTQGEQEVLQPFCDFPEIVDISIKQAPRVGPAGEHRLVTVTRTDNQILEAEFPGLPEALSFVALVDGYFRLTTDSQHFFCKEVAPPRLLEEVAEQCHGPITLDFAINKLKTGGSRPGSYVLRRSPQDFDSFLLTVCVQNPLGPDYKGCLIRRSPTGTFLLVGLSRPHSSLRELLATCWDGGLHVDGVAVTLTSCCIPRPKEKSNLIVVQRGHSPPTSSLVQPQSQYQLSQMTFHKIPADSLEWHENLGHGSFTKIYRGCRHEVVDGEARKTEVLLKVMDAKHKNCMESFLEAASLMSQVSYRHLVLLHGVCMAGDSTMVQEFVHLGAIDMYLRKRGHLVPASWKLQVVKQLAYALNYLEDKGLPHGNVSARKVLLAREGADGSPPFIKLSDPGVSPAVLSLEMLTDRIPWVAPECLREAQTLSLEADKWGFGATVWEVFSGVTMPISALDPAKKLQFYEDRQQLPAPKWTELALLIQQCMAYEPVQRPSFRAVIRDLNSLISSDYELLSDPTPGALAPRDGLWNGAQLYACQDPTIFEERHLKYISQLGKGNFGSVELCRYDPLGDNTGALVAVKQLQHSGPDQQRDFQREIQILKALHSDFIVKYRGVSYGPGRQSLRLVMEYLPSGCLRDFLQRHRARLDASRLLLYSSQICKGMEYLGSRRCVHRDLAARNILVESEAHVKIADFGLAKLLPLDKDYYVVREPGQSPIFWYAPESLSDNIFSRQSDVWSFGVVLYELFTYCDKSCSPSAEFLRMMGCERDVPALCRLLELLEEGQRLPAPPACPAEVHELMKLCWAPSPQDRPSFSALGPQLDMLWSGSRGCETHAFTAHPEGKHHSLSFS
Protocol: (§4) The protocol used to analyze the effect of compounds of the invention on JAK phosphorylation/activation is adapted from: Krutzik and Nolan, Cytometry Part A 55A:61-70 (2003).
(§5) Briefly, U-937 cells, histiocytic lymphoma cell line; ATCC No. CRL-1593.2, were treated with compounds of the invention or commercial JAK inhibitors. Cells were then stimulated with IL-4, to engage the JAK/STAT signaling pathway. Cells were fixed with formaldehyde to “freeze” the phosphorylation states of intracellular proteins. Cells were next permeabilized, and stained with mAbs directed against the phosphorylated STAT (pSTAT) proteins. The positive shift in fluorescence due to pSTAT staining serves as a surrogate to JAK phosphorylation/activation: no flow cytometric mAbs specific to JAKs exist, so the proximal downstream signaling event, STAT phosphorylation, is measured. A decrease in fluorescence, due to drug incubation prior to IL-4 stimulation, is an indirect indication of JAK inhibition. The following antibodies were used: apSTAT5-PE: monoclonal antibody to the intracellular STAT5a protein phosphorylated at Tyrosine 694; conjugated to the fluorochrome phycoerythrin (PE); BD No. 612567 and apSTAT6-Alex647: monoclonal antibody to the intracellular STAT6 protein phosphorylated at Tyrosine 641; conjugated to the fluorochrome Alexa Fluor 647; BD No. 612601. The detailed protocol is described below:
(§6) Resuspend U-937 cells @ 8×10^5 cells/mL in complete culture medium (RPMI-1640/10% FBS).
(§7) Add 0.5 mL cell suspension to each well of 24-well tissue culture plate.
(§8) Add drug treatment (compounds, controls) for 30 min @ 37° C., 5% CO2.
(§9) Add cytokine/growth factor to stimulate; 15-30 min @ 37° C. (1 μL/0.5 mL cell suspension; IL-4, IL-2, IL-15=20 ng/mL)
(§10) Transfer cells to 5 mL Flow tubes.
(§11) Add 16% Formaldehyde directly to cell culture to obtain final concentration of 1.5% formaldehyde. (47 μL formaldehyde+0.5 mL cell culture)
(§12) Incubate cells in fixative for 15 min @ 37° C., 5% CO2.
(§13) Add 3 mL cold “Staining Media” (PBS/1% BSA) to each tube; centrifuge cells @ 1100 RPM, 3 min. Discard supernatant.
(§14) Resuspend cells with vigorous vortexing in 200 μL ice-cold Methanol.
(§15) Incubate cells on ice, 30 min.
(§16) Wash cells twice in 2 mL “Staining Medium” (centrifuge cells @ 1100 RPM, 3 min). Discard supernatant.
(§17) Add 8 μL of fluorophore-conjugated, phosphoprotein-specific mAbs to cells. Incubate cells at RT, 60 min, in the dark.
(§18) Wash cells with 4 mL Staining Media. Centrifuge cells @ 1100 RPM, 3 min. Discard supernatant.
(§19) Resuspend cells in 350 μL Staining Media.
(§20) Acquire cellular events on BD FACSCalibur cytometer.

JAK1 = target: T2, JAK1 (Homo sapiens, UniProt P23458); experiment: JAK phosphorylation/activation by flow cytometry, pSTAT6 staining in IL-4 stimulated U-937 cells; settings: drug 30 min, then IL-4
T2 construct: U-937 cells, histiocytic lymphoma cell line; endogenous in cells; host or cells: U-937 (ATCC CRL-1593.2)
Protocol: as §4, §5, §6, §7, §8, §9, §10, §11, §12, §13, §14, §15, §16, §17, §18, §19, §20

T2 sequence (P23458 whole entry): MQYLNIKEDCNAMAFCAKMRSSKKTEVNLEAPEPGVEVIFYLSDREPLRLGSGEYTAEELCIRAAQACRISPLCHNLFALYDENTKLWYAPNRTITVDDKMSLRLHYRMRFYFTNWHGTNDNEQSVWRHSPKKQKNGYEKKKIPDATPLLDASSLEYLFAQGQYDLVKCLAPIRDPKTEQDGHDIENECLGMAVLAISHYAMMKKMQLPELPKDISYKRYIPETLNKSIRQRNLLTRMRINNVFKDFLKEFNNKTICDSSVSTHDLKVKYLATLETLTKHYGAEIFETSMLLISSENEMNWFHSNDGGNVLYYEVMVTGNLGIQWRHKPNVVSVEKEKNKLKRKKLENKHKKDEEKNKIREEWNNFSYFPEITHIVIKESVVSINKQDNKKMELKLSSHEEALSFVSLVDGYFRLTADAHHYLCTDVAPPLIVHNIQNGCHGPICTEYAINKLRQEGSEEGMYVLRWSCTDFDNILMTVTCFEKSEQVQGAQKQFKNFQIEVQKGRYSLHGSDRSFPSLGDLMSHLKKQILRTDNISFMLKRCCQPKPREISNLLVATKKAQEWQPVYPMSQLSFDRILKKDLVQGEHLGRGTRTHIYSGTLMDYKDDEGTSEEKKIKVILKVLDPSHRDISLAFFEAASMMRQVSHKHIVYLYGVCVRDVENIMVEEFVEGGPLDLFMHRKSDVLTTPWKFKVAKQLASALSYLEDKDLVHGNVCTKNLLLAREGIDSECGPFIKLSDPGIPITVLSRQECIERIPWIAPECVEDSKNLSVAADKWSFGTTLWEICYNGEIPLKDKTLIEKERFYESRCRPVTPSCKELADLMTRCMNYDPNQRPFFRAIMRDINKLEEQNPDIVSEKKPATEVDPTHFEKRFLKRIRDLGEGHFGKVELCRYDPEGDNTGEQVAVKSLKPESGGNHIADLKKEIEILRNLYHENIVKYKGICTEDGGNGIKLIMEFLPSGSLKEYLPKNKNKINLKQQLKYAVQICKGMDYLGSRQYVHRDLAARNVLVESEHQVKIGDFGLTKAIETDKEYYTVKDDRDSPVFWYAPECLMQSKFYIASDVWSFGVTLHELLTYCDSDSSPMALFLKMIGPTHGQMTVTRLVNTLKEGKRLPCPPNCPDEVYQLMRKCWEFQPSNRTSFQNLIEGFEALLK

Structure (SMILES) | GI50 (SYF/c-Src527F cell line) [µM] | GI50 [1] [µM] | JAK3 pStat5-PE Signal (JAK3) | JAK3 pStat5-PE Signal/Background (JAK3) | JAK1 pStat6-Alexa647 Signal (JAK1) | JAK1 pStat6-Alexa647 Signal/Background (JAK1)
O=C(Cc1ccccc1)NCc1ccc(-c2ccccc2)cn1 [Compound 140] | 11.8 | 2.1 | 3.02 | 1.14 | 13.76 | 3.62
O=C(CCc1ccccc1)Cc1ccc(-c2ccccc2)cn1 [Compound 150] | 20.8 | 5.7 | 3.36 | 1.27 | 14.48 | 3.81
O=C(Cc1ccccc1)NCc1ccc(OCc2ccccc2)cc1 [Compound 163] | 275 | 62.9 | 3.24 | 1.22 | 15.35 | 4.04
